Data from ChEMBL document CHEMBL3871285, “NTS2-selective neurotensin mimetics with tetrahydrofuran amino acids” (Bioorg Med Chem, 2017).
*1 amine or outer side, *2 acyl side, *3 side chain or, on linkers, in order; H or OH if unused. Where a SMILES comes first, the peptide text is derived from it. [ ]: non-standard residue; d: D form. X2 = O=C([C@]1(N[*:1])CCO[C@@H]1c1ccc(Br)cc1)[*:2]; X1 = O=C([C@@]1(N[*:1])CCO[C@H]1c1ccc(O)cc1)[*:2]; X3 = O=C([C@]1(N[*:1])CCO[C@@H]1c1ccc(O)cc1)[*:2]

Tests used:
[1] = molecular target: Neurotensin receptor type 1 (Homo sapiens, UniProt P30989); assay: Displacement of [3H]neurotensin from human NTS1 receptor expressed in CHOK1 cell membranes after 60 mins by scintillation counting; design: species or system CHO-K1
Neurotensin receptor type 1, sequence (P30989 whole entry, the tested form may be a part): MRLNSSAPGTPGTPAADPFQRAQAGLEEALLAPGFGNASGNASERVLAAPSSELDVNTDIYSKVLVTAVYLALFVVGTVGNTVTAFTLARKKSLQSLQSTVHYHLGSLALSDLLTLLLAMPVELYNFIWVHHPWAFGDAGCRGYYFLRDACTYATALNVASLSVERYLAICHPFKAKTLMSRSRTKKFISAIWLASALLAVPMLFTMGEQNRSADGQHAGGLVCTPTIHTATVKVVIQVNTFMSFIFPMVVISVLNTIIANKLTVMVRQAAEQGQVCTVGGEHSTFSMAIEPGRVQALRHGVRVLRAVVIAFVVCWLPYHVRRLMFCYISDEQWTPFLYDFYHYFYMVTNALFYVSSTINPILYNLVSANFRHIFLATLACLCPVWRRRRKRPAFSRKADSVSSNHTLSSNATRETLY

[2] = molecular target: Neurotensin receptor type 2 (Homo sapiens, UniProt O95665); assay: Displacement of [leucine-3H]NT (8 to 13 residues) from human NTS2 receptor expressed in HEK293 cell membranes after 60 mins by scintillation counting
Neurotensin receptor type 2, sequence (O95665 whole entry, the tested form may be a part): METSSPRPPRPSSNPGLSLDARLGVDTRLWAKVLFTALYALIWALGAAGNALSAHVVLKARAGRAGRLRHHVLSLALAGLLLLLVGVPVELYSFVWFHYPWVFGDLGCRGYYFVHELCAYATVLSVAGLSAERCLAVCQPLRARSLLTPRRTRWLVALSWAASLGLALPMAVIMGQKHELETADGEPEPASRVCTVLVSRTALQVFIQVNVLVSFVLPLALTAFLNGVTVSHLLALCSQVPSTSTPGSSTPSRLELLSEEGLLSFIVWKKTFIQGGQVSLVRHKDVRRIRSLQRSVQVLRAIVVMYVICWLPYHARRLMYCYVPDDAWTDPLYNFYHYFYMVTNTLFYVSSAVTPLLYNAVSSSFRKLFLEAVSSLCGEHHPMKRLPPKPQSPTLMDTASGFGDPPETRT

[3] = Selectivity ratio of IC50 for human NTS1 receptor expressed in CHOK1 cell membranes to IC50 for NTS2 receptor expressed in HEK293 cell membranes

| Compound | Ki [1] [µM] | Ki [2] [µM] | Ratio Ki [3] |
| --- | --- | --- | --- |
| CC(C)C[C@H](NC(=O)C1(NC(=O)[C@@H]2CCCN2C(=O)[C@H](CCCCN)NC(=O)[C@@H](N)CCCCN)CCOC1c1ccc(Br)cc1)C(=O)O (stereo in doubt; 7-1) | 67 | 27 | – |
| CC(C)C[C@H](NC(=O)CNC(=O)[C@@]1(NC(=O)[C@@H]2CCCN2C(=O)[C@H](CCCNC(=N)N)NC(=O)[C@@H](N)CCCNC(=N)N)CCO[C@H]1c1ccc(O)cc1)C(=O)O (H-RRP[X1]GL-OH) | 35 | 0.029 | >1000 |
| CC[C@H](C)[C@H](NC(=O)[C@H](Cc1ccc(Br)cc1)NC(=O)[C@@H]1CCCN1C(=O)[C@H](CCCCN)NC(=O)[C@@H](N)CCCCN)C(=O)N[C@@H](CC(C)C)C(=O)O | 0.093 | 0.069 | – |
| CC(C)C[C@H](NC(=O)C1(NC(=O)[C@@H]2CCCN2C(=O)[C@H](CCCNC(=N)N)NC(=O)[C@@H](N)CCCNC(=N)N)CCOC1c1ccc(Br)cc1)C(=O)O (stereo in doubt; 10-2) | 72.5 | 1.43 | – |
| CC[C@H](C)[C@H](NC(=O)[C@]1(NC(=O)[C@@H]2CCCN2C(=O)[C@H](CCCNC(=N)N)NC(=O)[C@@H](N)CCCCN)CCO[C@@H]1c1ccc(Br)cc1)C(=O)N[C@@H](CC(C)C)C(=O)O (H-KRP[X2]IL-OH) | 5 | 0.11 | – |
| CC[C@H](C)[C@H](NC(=O)[C@]1(NC(=O)[C@@H]2CCCN2C(=O)[C@H](CCCNC(=N)N)NC(=O)[C@@H](N)CCCNC(=N)N)CCO[C@@H]1c1ccc(Br)cc1)C(=O)N[C@@H](CC(C)C)C(=O)O | – | 0.615 | – |
| CC[C@H](C)[C@H](NC(=O)[C@]1(NC(=O)[C@@H]2CCCN2C(=O)[C@H](CCCCN)NC(=O)[C@@H](N)CCCNC(=N)N)CCO[C@@H]1c1ccc(Br)cc1)C(=O)N[C@@H](CC(C)C)C(=O)O (H-RKP[X2]IL-OH) | 10 | – | – |
| CC[C@H](C)[C@H](NC(=O)C1(NC(=O)[C@@H]2CCCN2C(=O)[C@H](CCCNC(=N)N)NC(=O)[C@@H](N)CCCNC(=N)N)CCOC1c1ccc(Br)cc1)C(=O)N[C@@H](CC(C)C)C(=O)O (some centres undefined) | – | 0.012 | – |
| CC(C)C[C@H](NC(=O)C1(NC(=O)[C@@H]2CCCN2C(=O)[C@H](CCCNC(=N)N)NC(=O)[C@@H](N)CCCNC(=N)N)CCOC1c1ccc(Br)cc1)C(=O)O (stereo in doubt; 10-1) | 91.5 | 49 | – |
| CC(C)C[C@H](NC(=O)CNC(=O)[C@]1(NC(=O)[C@@H]2CCCN2C(=O)[C@H](CCCNC(=N)N)NC(=O)[C@@H](N)CCCNC(=N)N)CCO[C@@H]1c1ccc(O)cc1)C(=O)O (H-RRP[X3]GL-OH) | 20 | 0.7 | – |
| CC[C@H](C)[C@H](NC(=O)[C@@H](Cc1ccc(Br)cc1)NC(=O)[C@@H]1CCCN1C(=O)[C@H](CCCCN)NC(=O)[C@@H](N)CCCCN)C(=O)N[C@@H](CC(C)C)C(=O)O | 2.17 | 0.873 | – |
| CC(C)C[C@H](NC(=O)C1(NC(=O)[C@@H]2CCCN2C(=O)[C@H](CCCCN)NC(=O)[C@@H](N)CCCNC(=N)N)CCOC1c1ccc(Br)cc1)C(=O)O (stereo in doubt; 9-1) | 70.5 | – | – |
| CC(C)C[C@H](NC(=O)C1(NC(=O)[C@@H]2CCCN2C(=O)[C@H](CCCNC(=N)N)NC(=O)[C@@H](N)CCCCN)CCOC1c1ccc(Br)cc1)C(=O)O (stereo in doubt; 8-1) | 53 | 28 | – |
| CC(C)C[C@H](NC(=O)CNC(=O)C1(NC(=O)[C@@H]2CCCN2C(=O)[C@H](CCCCN)NC(=O)[C@@H](N)CCCCN)CCOC1c1ccc(Br)cc1)C(=O)O (stereo in doubt; 16-2) | 35 | 1.95 | – |
| CC(C)C[C@H](NC(=O)C1(NC(=O)[C@@H]2CCCN2C(=O)[C@H](CCCNC(=N)N)NC(=O)[C@@H](N)CCCCN)CCOC1c1ccc(Br)cc1)C(=O)O (stereo in doubt; 8-2) | 92.3 | 11 | – |
| CC[C@H](C)[C@H](NC(=O)[C@]1(NC(=O)[C@@H]2CCCN2C(=O)[C@H](CCCCN)NC(=O)[C@@H](N)CCCCN)CCO[C@@H]1c1ccc(Br)cc1)C(=O)N[C@@H](CC(C)C)C(=O)O (H-KKP[X2]IL-OH) | 13 | – | – |
| CC(C)C[C@H](NC(=O)CNC(=O)C1(NC(=O)[C@@H]2CCCN2C(=O)[C@H](CCCCN)NC(=O)[C@@H](N)CCCCN)CCOC1c1ccc(Br)cc1)C(=O)O (stereo in doubt; 16-1) | > 50 | 0.5 | – |
| CC(C)C[C@H](NC(=O)C1(NC(=O)[C@@H]2CCCN2C(=O)[C@H](CCCCN)NC(=O)[C@@H](N)CCCNC(=N)N)CCOC1c1ccc(Br)cc1)C(=O)O (stereo in doubt; 9-2) | > 100 | – | – |
| CC[C@H](C)[C@H](NC(=O)[C@]1(NC(=O)[C@@H]2CCCN2C(=O)[C@H](CCCNC(=N)N)NC(=O)[C@@H](N)CCCNC(=N)N)CCO[C@@H]1c1ccc(O)cc1)C(=O)N[C@@H](CC(C)C)C(=O)O | – | 0.012 | – |
| CC(C)C[C@H](NC(=O)C1(NC(=O)[C@@H]2CCCN2C(=O)[C@H](CCCCN)NC(=O)[C@@H](N)CCCCN)CCOC1c1ccc(Br)cc1)C(=O)O (stereo in doubt; 7-2) | 95.5 | 2.03 | – |
